Assay results as given in US11529343B2, “Compositions and methods for identifying and treating dystonia disorders” (DUKE UNIVERSITY, priority 2015, dated 2022).
Entries after “also recorded” stand apart in the source; their conditions may differ. Where a name gives a salt, the structure may show the parent alone.

Assays:
luciferase secretion = assay: C.Luc. Secretion Assay; type: cell-based; details: for effect on secretory deficits, in words: orthogonal assays
Method: We tested each shRNA for its ability to rescue a previously described defect in luciferase secretion. Chen, P. et al. (2010) Hum. Mol. Genet. 19, 3502-15; Cao, S. et al. (2010) Dis. Model Mech. 3, 386-96; Barrows, N. J., et al., (2010) J. Biomol. Screen. 15, 735-47.) DYT1 patient data were obtained from 4 independent patient-derived lines and WT data (black bar) from 3 normal healthy control lines. Each line was tested in 5 independent experiments that included 4 technical replicates each (with the exception of SCD data from 3 independent experiments).
(Cao, S. et al. (2010) Dis. Model. Mech. 3, 386-96.) Subsequent testing of additional HIV protease inhibitors supported the activity of this class of compounds and generated favorable structure-activity relationship (SAR) data from which to design improved compounds (Tables 5 and 6). The results with a subset of compounds were also observed in a Luciferase secretion assay (Tables 5 and 6).

[1] = test system: delta-E Torsin1a localization; assay: Delta-E Torsin1a mislocalization assay (% cells with EGFP puncta, high-content imaging); type: cell-based, human; details: for effect on delta-E Torsin1a localization (cells with puncta), in words: dose response; for % pathology CC-v2 (dose response Curve Class): curve class per Inglese et al. 2006
Method: To limit variation in expression levels associated with random integration or transient expression, single copies of either WT or delta-E human TOR1A cDNAs with N-terminal EGFP fusions were inserted at the FRT site in Flp-In™ T-Rex™ 293 cells (Thermo Fisher Scientific #R780-07) via flippase recombinase-mediated cassette exchange according to the manufacturer's recommended protocols.
The cells were maintained at 37° C./5% CO2. All experiments were performed on cells with fewer than 5 passages.
Torsin1a expression was also controlled by tetracycline induction to avoid selective pressure modifying the cellular phenotypes. […] The mutant phenotype was measured as the percentage of cells with one or more EGFP puncta using automated high-content imaging analysis (see infra).
The image analysis algorithm was developed using the Cellomics ArrayScan V CompartmentAnalysisV2 protocol. Hoechst's nuclear staining (Ch1: excitation 350 nm; emission 461 nm) was used for focusing and for cell identification by nuclear size, shape, and intensity. […] Detected cells were gated according to nuclear area, length-to-width ratio, and perimeter-to-area ratio. For the purpose of analysis, cell bodies were defined by a radius of 10 μm from the outer edge of the defined nucleus. Overlapping cells were automatically segmented according to the Cellomics ArrayScanV CompartmentAnalysisV2 object segmentation feature. EGFP fluorescence (Ch2: excitation 488 nm; emission 509 nm) was used for puncta detection. […] Torsin a puncta were identified using the spot detection feature of the Compartmental AnalysisV2 protocol. The percentage of cells containing one or more puncta was used as the primary metric in this assay.
(§1) In order to test this model directly, the delta-E Torsin1a cell line was treated with compounds targeting the eIF2-alpha signaling pathway (FIG. 2). […] The following day, serial drug dilutions were prepared at 2× final concentration in assay media containing 10 μg/mL tetracycline and 30 μL of the drug/tetracycline mixture was added to the appropriate wells, while control wells received 30 μL of assay media alone or assay media+10 μg/mL tetracycline (final tetracycline concentration for all wells except negative controls: 5 μg/mL). Cells were then incubated at 37° C./5% CO^2 for 48 hours and fixed, permeabilized, Hoechst stained, and imaged as described above. The range of the Torsin1a localization effect was normalized to the percentage of cells with puncta in vehicle-treated delta-E cell line as the maximum and that in WT cell line as the minimum (FIG. 2, panels c-h). Cell count and EGFP-Torsin1a expression were normalized to their respective values in the vehicle-treated delta-E cell line as the maximum. All dose response data are the average of 4 independent experiments per dose. Untreated control data used for normalization are the average of 24 independent experiments.

[2] = test system: Flp-In T-REx 293 cells inducibly expressing delta-E Torsin1a; assay: Cytotoxicity (cell count, cellular morphology) in the Torsin1a assay cell line; type: cell-based, human; details: for Cytotox CC-v2 (dose response Curve Class): curve class per Inglese et al. 2006
Method: as §1
Efficacy is calculated as the magnitude of the pathology correction relative to the mutant Torsin1a pathology. For example an efficacy=−100% would be equivalent to the WT TorsinA phenotype, and 0% would be equivalent to the Mutant TorsinA phenotype. CCv2 refers to the dose response Curve Class annotation, and AC refers to Active Concentration.

[3] = test system: homozygous DYT1 knock-in mice; assay: Perinatal survival of DYT1 knock-in mice after in utero exposure; type: in vivo
Source text: Pairs of heterozygous delta-E Torsin1a knock-in breeders (courtesy of Dr. W. Dauer, University of Michigan) were randomly assigned to vehicle or salubrinal treatment groups. Starting 10 days after breeding cages were established, each female mouse was given a daily subcutaneous injection of vehicle or salubrinal at approximately 6 p.m. Cages were checked for new pups three times per day: morning (˜8 a.m.), early afternoon (˜2 p.m.), and during injections (˜6 p.m.). In order to minimize stress and the possibility of litter abandonment, mice with newborn pups were not given injections. Newborn pups were identified by marking limbs with a permanent laboratory marker, and tail samples were taken for genotyping at P0. At approximately P0.5, cages were checked again, and the status of each pup was recorded. If pups were first observed at the 8 am check, the 2 pm check was considered P0.5. If pups were first observed at the 2 pm or 6 pm checks, an additional check was performed at approximately midnight, and considered P0.5. Mortality was also tracked the following day, after which time identifying marks were predominately washed off or obscured by fur. Approximately 8 days after birth all remaining pups were sacrificed, and 10 days after birth daily injections resumed for the subsequent litter. All genotyping and, whenever possible, all pup identification and mortality checks were performed blinded to treatment group.
Salubrinal (R&D Systems #2347) stocks were prepared at 26 mM (10× final concentration) in DMSO and stored in single-use aliquots at −80° C. Each day immediately before injections, a single salubrinal aliquot was thawed to room temperature and diluted 1:10 in injection vehicle (final vehicle composition: 1×PBS/10% DMSO/0.1% BSA). Empty injection vehicle was stored at room temperature in single-use aliquots. Mice were given a single subcutaneous injection of 3.3 mg/kg salubrinal (approximately 80 μL for a 30 g mouse) or an equivalent volume of empty injection vehicle. […]

[4] = delta-E Torsin1a assay cell line

CC(C)(C)NC(=O)[C@@H]1C[C@@H]2CCCC[C@@H]2CN1C[C@@H](O)[C@H](Cc1ccccc1)NC(=O)[C@H](CC(N)=O)NC(=O)c1ccc2ccccc2n1 [Saquinavir]
effect on secretory deficits, in words (luciferase secretion): corrected secretory deficits | effect on delta-E Torsin1a localization (cells with puncta), in words ([1]; delta-E cell line): corrected TorsinA localization in a dose-dependent fashion

Cc1c(O)cccc1C(=O)N[C@@H](CSc1ccccc1)[C@H](O)CN1C[C@H]2CCCC[C@H]2C[C@H]1C(=O)NC(C)(C)C [Viracept]
Cytotox Efficacy [2]: −106.32% | Cytotox Max Resp [2]: −97.72% | Cytotox CC-v2 (dose response Curve Class) [2]: −1.1

CC(C)(C)NC(=O)[C@@H]1CN(Cc2cccnc2)CCN1C[C@@H](O)C[C@@H](Cc1ccccc1)C(=O)N[C@H]1c2ccccc2C[C@H]1O [Indinavir sulfate]
Cytotox Efficacy [2]: −80.64% | Cytotox Max Resp [2]: −67.80% | Cytotox CC-v2 (dose response Curve Class) [2]: −3

COC(=O)N[C@H](C(=O)N[C@@H](Cc1ccccc1)[C@@H](O)CN(Cc1ccc(-c2ccccn2)cc1)NC(=O)[C@@H](NC(=O)OC)C(C)(C)C)C(C)(C)C [Atazanavir]
Cytotox CC-v2 (dose response Curve Class) [2]: 4 | ΔE TorsinA Mislocalization Assay Localization EC50 [1, 4]: No Activity

CC(C)c1nc(CN(C)C(=O)N[C@H](C(=O)N[C@@H](Cc2ccccc2)C[C@H](O)[C@H](Cc2ccccc2)NC(=O)OCc2cncs2)C(C)C)cs1 [Ritonavir]
Cytotox CC-v2 (dose response Curve Class) [2]: 4 | effect on secretory deficits, in words (luciferase secretion): corrected secretory deficits | effect on delta-E Torsin1a localization (cells with puncta), in words ([1]; delta-E cell line): corrected TorsinA localization in a dose-dependent fashion; also recorded: restored

CC(C)CN(C[C@@H](O)[C@H](Cc1ccccc1)NC(=O)O[C@H]1CO[C@H]2OCC[C@H]21)S(=O)(=O)c1ccc(N)cc1 [Darunavir]
C.Luc. Secretion Assay Secretion EC50 (luciferase secretion): No Activity | ΔE TorsinA Mislocalization Assay Localization EC50 [1, 4]: No Activity

CC(C)(C)NC(=O)[C@@H]1CN(Cc2cccnc2)CCN1C[C@@H](O)C[C@@H](Cc1ccccc1)C(=O)N[C@H]1c2ccccc2C[C@H]1O [Indinavir]
effect on delta-E Torsin1a localization (cells with puncta), in words ([1]; delta-E cell line): corrected TorsinA localization in a dose-dependent fashion

Cc1cccc(C)c1OCC(=O)NC(CCC(Cc1ccccc1)NC(=O)C(C(C)C)N1CCCNC1=O)Cc1ccccc1 (stereo not shown) [Des-hydroxy Lopinavir]
Cytotox Efficacy [2]: −77.66% | Cytotox Max Resp [2]: −66.67% | Cytotox CC-v2 (dose response Curve Class) [2]: −2.2 | % pathology CC-v2 (dose response Curve Class) [1]: −3

N=C(N)N/N=C/c1c(Cl)cccc1Cl [guanabenz]
effect on delta-E Torsin1a localization (cells with puncta), in words ([1]; delta-E cell line): no effect

CC(C)CN(C[C@@H](O)[C@H](Cc1ccccc1)NC(=O)O[C@H]1CCOC1)S(=O)(=O)c1ccc(N)cc1 [Amprenavir]
Cytotox CC-v2 (dose response Curve Class) [2]: 4 | ΔE TorsinA Mislocalization Assay Localization EC50 [1, 4]: No Activity

CCCC(CCC)C(=O)O [valproic acid]
effect on delta-E Torsin1a localization (cells with puncta), in words ([1]; delta-E cell line): no effect

C[C@H](NC(=O)Cc1cc(F)cc(F)c1)C(=O)N[C@H](C(=O)OC(C)(C)C)c1ccccc1 [DAPT]
effect on delta-E Torsin1a localization (cells with puncta), in words ([1]; delta-E cell line): no effect

CCN(CC)CCC(=O)N1N=C(c2c(-c3ccccc3)c3cc(Br)ccc3[nH]c2=O)CC1c1ccc(Br)cc1 (stereo not shown) [CCT020312]
effect on delta-E Torsin1a localization (cells with puncta), in words ([1]; delta-E cell line): dose-dependent reduction in the number of cells with Torsin1a inclusions

Cc1c(O)cccc1C(=O)N[C@@H](CSc1ccccc1)[C@H](O)CN1C[C@H]2CCCC[C@H]2C[C@H]1C(=O)NC(C)(C)C [Nelfinavir]
Emax ([1]; Homo sapiens, delta-E Torsin1a assay cell line, read-out: ΔE TorsinA Mislocalization Assay Localization Max Efficacy): 80% | effect on delta-E Torsin1a localization (cells with puncta), in words ([1]; delta-E cell line): corrected TorsinA localization in a dose-dependent fashion

CS(=O)(=O)O.Cc1c(O)cccc1C(=O)N[C@@H](CSc1ccccc1)[C@H](O)CN1C[C@H]2CCCC[C@H]2C[C@H]1C(=O)NC(C)(C)C.O [Nelfinavir mesylae hydrate]
Cytotox Efficacy [2]: −98.05% | Cytotox Max Resp [2]: −95.64% | Cytotox CC-v2 (dose response Curve Class) [2]: −1.1 | % pathology CC-v2 (dose response Curve Class) [1]: −1.1

O=C(/C=C/c1ccccc1)NC(NC(=S)Nc1cccc2cccnc12)C(Cl)(Cl)Cl (stereo not shown) [Salubrinal]
perinatal survival / mortality of delta-E/delta-E pups ([3]; 3.3 mg/kg subcutaneous daily to pregnant dams, about embryonic day 10 through delivery, versus vehicle): dramatically reduced the mortality; also recorded: improves perinatal survival | mortality of wild-type and heterozygous pups ([3]; 3.3 mg/kg subcutaneous daily to pregnant dams, versus vehicle): no mortality differences | homozygous delta-E Torsin1a pups surviving through the second postnatal day ([3]; no postnatal treatment, no vehicle-treated homozygous pup survived the first postnatal day): two | steady-state EGFP-Torsin1a levels, in words ([1]; delta-E cell line): without modifying steady-state EGFP-Torsin1a levels | effect on delta-E Torsin1a localization (cells with puncta), in words ([1]; delta-E cell line): robust dose-dependent normalization
